Source: US10597696B2, “Detection of Niemann-Pick disease comprising detection of lysozyme and cathepsins” (UNIVERSITY OF NOTRE DAME DU LAC, priority 2013, dated 2020)

Experiments:
NPC patients [1] = experiment: Plasma cathepsin S level in Miglustat-treated NPC patients; type: in vivo, human; settings: patients treated with Miglustat vs untreated NPC patients
Source text: (§1) A major hurdle is that inflammatory products of cerebral disease are not easily detected in blood. Inflammation in multiple organs and heterogeneity in disease present additional challenges in distinguishing the extent to which a blood based marker reflects disease in brain or other afflicted organs. We utilized murine models of the monogenetic disorder Niemann Pick Type C (NPC) that present aggressive forms of cerebral and liver inflammatory disease to identify secretory biomarkers for neuroinflammation. […] We utilized 2-hydroxypropyl-beta-cyclodextrin (HPβCD; an emerging therapeutic) administered intraperitoneally in mice, which abrogates inflammatory pathology in the liver but has limited effect on the brain. By analyzing the corresponding effects on inflammatory plasma proteins, we identified cathepsin S as a lead indicator of liver disease. In contrast lysozyme was a marker of both brain and liver disease. The study was extended on human samples. The level of lysozyme and cathepsin S were determined in the plasma samples from healthy individuals (age and gender matched), untreated NPC patients and Miglustat (also known as Zavesca) treated NPC patients. […] The plasma concentration of these two markers in untreated and Miglustat treated NPC samples when analyzed together yielded a composite score to assess extent of neurodegeneration. […]

NPC patients [2] = experiment: Plasma lysozyme level in Miglustat-treated NPC patients; type: in vivo, human; settings: Miglustat-treated NPC samples vs untreated NPC and healthy controls
Source text: as §1

With `CCCCN1C[C@H](O)[C@@H](O)[C@H](O)[C@H]1CO` [Miglustat] the “plasma cathepsin S” value (NPC patients [1]) was “further elevated” and the plasma lysozyme level (NPC patients [2]) was “reduced compared to untreated NPC patients and were equivalent to healthy controls”.
